According to patent US9988400B2 (Genentech, Inc., priority 2013, dated 2018):

Target: T1, HEK cells stably transfected with tetracycline inducible hNR1 and hNR2A (Homo sapiens, UniProt Q05586+Q12879)
T1 construct: expressed in transfected cells; host or cells: HEK cells, stably transfected, tetracycline/doxycycline inducible
Experiment: Assay 1: Cell-Based Assay, cytosolic calcium response to positive allosteric modulators (with 30 μM glycine and 300 nM L-glutamate, EC30)
Conditions: Table 2; for EC50: cytosolic calcium response, with 30 μM glycine and 300 nM L-glutamate (EC30), — = no plateau was reached; for Max %: responses scaled relative to 100 μM L-glutamate maximal response (100%) and 0 μM L-glutamate (0%)
Method: Assay 1: Cell-Based Assay
HEK cells stably transfected with tetracycline inducible hNR1 and hNR2A were seeded into clear bottom 384 well poly-D-lysine coated plates (2.5×10^4 cells per well) in Minimum Essential Media (MEM; without L-) including 7.5 μg mL^−1 doxycycline and 500 μM (+)-ketamine. The cells were incubated at 37° C. in 5% CO2 for 24 h. For measurement of changes in cytosolic calcium, the seeding media was removed and the cells incubated at 37° C. for 60 min with 1× Becton Dickinson Calcium Assay Kit reagent in Hanks Balanced Salt Solution (HBSS; w/o magnesium, including 1.8 mM calcium, 0.65 mg ml^−1 probenecid and 10 μM (+)-ketamine, pH 7.15) then allowed to equilibrate to rt for 30 min. Concentration-effect curves to Positive Allosteric Modulators (PAMs) were constructed by adding different concentrations (with 30 μM glycine and 300 nM L-glutamate (EC30)) to different wells in HBSS. Compounds were added after a 10 second baseline read and maximum level of relative fluorescence units (RFU) was measured over a 5 min period. Responses were scaled relative to 100 μM L-glutamate maximal response (100%) and 0 μM L-glutamate (0%). EC50 values are provided for compounds reaching maximal response plateaus, and the max % (EC50 (- -)) only if no plateau was reached.
A four-parameter Hill equation was fitted to individual concentration-effect curves:
[formula] in which Y, S0, Sinf, AC50, n and c were effect, lower-asymptote, upper-asymptote, mid-point location, slope parameter, and concentration respectively.

T1 sequence (Q12879 23-1464, other chains not shown): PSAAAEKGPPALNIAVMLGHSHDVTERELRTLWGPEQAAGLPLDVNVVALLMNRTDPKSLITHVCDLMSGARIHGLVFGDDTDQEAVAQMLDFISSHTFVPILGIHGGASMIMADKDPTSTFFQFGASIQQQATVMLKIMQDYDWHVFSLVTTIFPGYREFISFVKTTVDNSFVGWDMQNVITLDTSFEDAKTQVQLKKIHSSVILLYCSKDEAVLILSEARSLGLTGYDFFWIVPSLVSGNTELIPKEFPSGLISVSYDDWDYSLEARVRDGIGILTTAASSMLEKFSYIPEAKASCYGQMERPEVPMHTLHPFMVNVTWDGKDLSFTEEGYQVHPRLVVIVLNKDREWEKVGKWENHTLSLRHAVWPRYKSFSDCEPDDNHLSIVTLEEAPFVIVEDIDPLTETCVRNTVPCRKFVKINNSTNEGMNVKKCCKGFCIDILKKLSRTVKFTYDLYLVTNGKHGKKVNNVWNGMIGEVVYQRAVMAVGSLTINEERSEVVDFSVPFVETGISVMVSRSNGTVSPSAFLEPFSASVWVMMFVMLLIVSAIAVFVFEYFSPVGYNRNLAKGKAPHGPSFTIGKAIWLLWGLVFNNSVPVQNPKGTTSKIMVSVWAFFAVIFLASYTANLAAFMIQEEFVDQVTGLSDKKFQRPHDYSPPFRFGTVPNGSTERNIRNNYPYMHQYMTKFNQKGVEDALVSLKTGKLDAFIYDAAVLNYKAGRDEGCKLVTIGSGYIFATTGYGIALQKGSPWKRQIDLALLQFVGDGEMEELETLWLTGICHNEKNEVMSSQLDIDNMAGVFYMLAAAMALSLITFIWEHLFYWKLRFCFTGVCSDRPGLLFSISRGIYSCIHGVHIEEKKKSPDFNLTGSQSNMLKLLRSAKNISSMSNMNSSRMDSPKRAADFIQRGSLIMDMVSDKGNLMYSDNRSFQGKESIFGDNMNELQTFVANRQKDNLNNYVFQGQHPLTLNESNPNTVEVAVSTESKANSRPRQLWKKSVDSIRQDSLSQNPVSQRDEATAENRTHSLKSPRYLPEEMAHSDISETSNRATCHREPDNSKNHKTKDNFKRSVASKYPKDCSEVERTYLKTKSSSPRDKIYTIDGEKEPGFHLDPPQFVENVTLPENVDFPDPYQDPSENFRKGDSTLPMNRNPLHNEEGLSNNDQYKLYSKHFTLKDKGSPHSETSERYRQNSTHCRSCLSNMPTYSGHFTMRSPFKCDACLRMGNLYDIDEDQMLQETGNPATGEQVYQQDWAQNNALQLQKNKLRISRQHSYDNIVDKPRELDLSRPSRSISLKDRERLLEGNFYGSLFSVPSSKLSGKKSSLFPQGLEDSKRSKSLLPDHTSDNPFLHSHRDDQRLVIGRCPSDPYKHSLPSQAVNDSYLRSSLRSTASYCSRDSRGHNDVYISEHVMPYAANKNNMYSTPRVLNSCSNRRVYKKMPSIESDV

SMILES	EC50	Max %
Cc1sc2nc(COc3ccc(F)cc3)cc(=O)n2c1C1CC1C#N (racemic) [Example 4.18, cis-2-[7-(4-Fluorophenoxymethyl)-2-methyl-5-oxo-5H-[1,3]thiazolo[3,2-a]pyrimidin-3-yl]cyclopropane-1-carbonitrile]	5 µM	102%
Cc1sc2nc(COc3cccc(F)c3)cc(=O)n2c1[C@@H]1C[C@H]1CO (relative stereo) [Example 4.4, 7-((3-fluorophenoxy)methyl)-3-(trans-2-(hydroxymethyl)cyclopropyl)-2-methyl-5H-thiazolo[3,2-a]pyrimidin-5-one]	2.5 µM	138%
Cc1sc2nc(COc3ccc(F)cc3F)cc(=O)n2c1[C@@H]1C[C@H]1CO (relative stereo) [Example 4.6, 7-(2,4-Difluorophenoxymethyl)-3-[trans-2-(hydroxymethyl)cyclopropyl]-2-methyl-5H-[1,3]thiazolo[3,2-a]pyrimidin-5-one]	7.7 µM	128%
Cc1sc2nc(COc3ccc(F)c(F)c3)cc(=O)n2c1[C@@H]1C[C@H]1CO (relative stereo) [Example 4.7, 7-(3,4-Difluorophenoxymethyl)-3-[trans-2-(hydroxymethyl)cyclopropyl]-2-methyl-5H-[1,3]thiazolo[3,2-a]pyrimidin-5-one]	5.8 µM	134%
Cc1sc2nc(COc3ccc(Cl)cc3)cc(=O)n2c1[C@@H]1C[C@H]1CO (relative stereo) [Example 4.8, 7-(4-Chlorophenoxymethyl)-3-[trans-2-(hydroxymethyl)cyclopropyl]-2-methyl-5H-[1,3]thiazolo[3,2-a]pyrimidin-5-one]	4.4 µM	99.3%
Cc1sc2nc(COc3ccc(F)cn3)cc(=O)n2c1[C@@H]1C[C@H]1CO (relative stereo) [Example 4.9, 7-[[(5-Fluoropyridin-2-yl)oxy]methyl]-3-[trans-2-(hydroxymethyl)cyclopropyl]-2-methyl-5H-[1,3]thiazolo[3,2-a]pyrimidin-5-one]	4.4 µM	123%
Cc1sc2nc(COc3ccc(C(F)(F)F)cc3)cc(=O)n2c1[C@@H]1C[C@H]1CO (relative stereo) [Example 4.10, 3-(trans-2-(hydroxymethyl)cyclopropyl)-2-methyl-7-((4-(trifluoromethyl)phenoxy)methyl)-5H-thiazolo[3,2-a] pyrimidin-5-one]	4.3 µM	108%
Cc1sc2nc(COc3ccccc3F)cc(=O)n2c1[C@@H]1C[C@H]1CO (relative stereo) [Example 4.12, 7-((2-fluorophenoxy)methyl)-3-(trans-2-(hydroxymethyl)cyclopropyl)-2-methyl-5H-thiazolo[3,2-a]pyrimidin-5-one]	30.6 µM	127%
Cc1sc2nc(COc3ccc(C#N)cc3)cc(=O)n2c1[C@@H]1C[C@H]1CO (relative stereo) [Example 4.13, 4-((3-(trans-2-(hydroxymethyl)cyclopropyl)-2-methyl-5-oxo-5H-thiazolo[3,2-a]pyrimidin-7-yl)methoxy)benzonitrile]	31.1 µM	72.8%
O=c1cc(COc2ccc(F)cc2)nc2scc([C@@H]3C[C@H]3CO)n12 (relative stereo) [Example 4.14, 7-((4-fluorophenoxy)methyl)-3-(trans-2-(hydroxymethyl)cyclopropyl)-5H-thiazolo[3,2-a]pyrimidin-5-one]	7.8 µM	93%
Cc1sc2nc(COc3ccc(F)cc3)cc(=O)n2c1[C@@H]1C[C@@H]1CO (relative stereo) [Example 4.23, 7-(4-Fluorophenoxymethyl)-3-[cis-2-(hydroxymethyl)cyclopropyl]-2-methyl-5H-[1,3]thiazolo[3,2-a]pyrimidin-5-one]	26.5 µM	62.9%
Cc1sc2nc(COc3ccc(F)cc3)cc(=O)n2c1[C@@H]1C[C@H]1C(F)(F)F (relative stereo) [Example 4.24, trans-7-(4-Fluorophenoxymethyl)-2-methyl-3-[2-(trifluoromethyl)cyclopropyl]-5H-[1,3]thiazolo[3,2-a]pyrimidin-5-one]	2.1 µM	80%
Cc1sc2nc(COc3ccc(F)cc3)cc(=O)n2c1[C@@H]1C[C@H]1CC#N (relative stereo) [Example 4.26, trans-2-[2-[7-(4-Fluorophenoxymethyl)-2-methyl-5-oxo-5H-[1,3]thiazolo[3,2-a]pyrimidin-3-yl]cyclopropyl]acetonitrile]		98.8%
Cc1sc2nc(COc3ccc(F)cc3)c(F)c(=O)n2c1[C@@H]1C[C@H]1CO (relative stereo) [Example 4.29, 6-fluoro-7-((4-fluorophenoxy)methyl)-3-(trans-2-(hydroxymethyl)cyclopropyl)-2-methyl-5H-thiazolo[3,2-a]pyrimidin-5-one]	17.5 µM	134%
CCN(Cc1cc(=O)n2c([C@@H]3C[C@H]3CO)c(C)sc2n1)c1ccccn1 (relative stereo) [Example 5.7, 7-((ethyl(pyridine-2-yl)amino)methyl)-3-(trans-2-(hydroxymethyl)cyclopropyl)-2-methyl-5H-thiazolo[3,2-a] pyrimidin-5-one]	0.867 µM	160%
CCN(Cc1cc(=O)n2c([C@@H]3C[C@H]3CO)c(C)sc2n1)c1ccc(F)cc1 (relative stereo) [Example 5.17, 7-((ethyl(4-fluorophenyl)amino)methyl)-3-(trans-2-(hydroxymethyl)cyclopropyl)-2-methyl-5H-thiazolo[3,2-a] pyrimidin-5-one]	0.108 µM	176%
CCN(Cc1cc(=O)n2c([C@@H]3C[C@H]3CO)csc2n1)c1ccc(F)cc1 (relative stereo) [Example 5.28, 7-[(N-ethyl-4-fluoro-anilino)methyl]-3-[trans-2-(hydroxymethyl)cyclopropyl)thiazolo[3,2-a]pyrimidin-5-one]	0.0952 µM	176%
CCN(Cc1cc(=O)n2c([C@@H]3C[C@H]3CF)c(C)sc2n1)c1ccc(F)cc1 (relative stereo) [Example 5.39, 7-((ethyl(4-fluorophenyl)amino)methyl)-3-(trans-2-(fluoromethyl)cyclopropyl)-2-methyl-5H-thiazolo[3,2-a]pyrimidin-5-one]	0.952 µM	167%
Cc1sc2nc(Cn3nc(C(F)(F)F)cc3C(F)(F)F)cc(=O)n2c1[C@@H]1C[C@H]1CO (relative stereo) [Example 15.2, 7-((3,5-bis(trifluoromethyl)-1H-pyrazol-1-yl)methyl)-3-(trans-2-(hydroxymethyl)cyclopropyl)-2-methyl-5H-thiazolo[3,2-a]pyrimidin-5-one]	1 µM	167%
Cc1sc2nc(Cn3nc(Cl)cc3C)cc(=O)n2c1[C@@H]1C[C@H]1CO (relative stereo) [Example 15.3, 7-((3-chloro-5-methyl-1H-pyrazol-1-yl)methyl)-3-(trans-2-(hydroxymethyl)cyclopropyl)-2-methyl-5H-thiazolo[3,2-a]pyrimidin-5-one]	0.489 µM	144%
Cc1cc(Cl)n(Cc2cc(=O)n3c([C@@H]4C[C@H]4CO)c(C)sc3n2)n1 (relative stereo) [Example 15.4, 7-((5-chloro-3-methyl-1H-pyrazol-1-yl)methyl)-3-(trans-2-(hydroxymethyl)cyclopropyl)-2-methyl-5H-thiazolo[3,2-a]pyrimidin-5-one]	0.782 µM	137%
Cc1sc2nc(Cn3ccc(C(F)(F)F)n3)cc(=O)n2c1[C@@H]1C[C@H]1CO (relative stereo) [Example 15.5, 3-(trans-2-(hydroxymethyl)cyclopropyl)-2-methyl-7-((3-(trifluoromethyl)-1H-pyrazol-1-yl)methyl)-5H-thiazolo[3,2-a]pyrimidin-5-one]	1.7 µM	131%
Cc1sc2nc(Cn3ncc4ccccc43)cc(=O)n2c1[C@@H]1C[C@H]1CO (relative stereo) [Example 15.6, 7-((1H-indazol-1-yl)methyl)-3-(trans-2-(hydroxymethyl)cyclopropyl)-2-methyl-5H-thiazolo[3,2-a]pyrimidin-5-one]	9.2 µM	138%
Cc1sc2nc(Cn3nc(C(F)(F)F)cc3CCO)cc(=O)n2c1[C@@H]1C[C@H]1CO (relative stereo) [Example 15.7, 7-[[5-(2-hydroxyethyl)-3-(trifluoromethyl)-1H-pyrazol-1-yl]methyl]-3-[trans-2-(hydroxymethyl)cyclopropyl]-2-methyl-5H-[1,3]thiazolo[3,2-a]pyrimidin-5-one]	0.826 µM	158%
Cc1sc2nc(Cn3nc(CCO)cc3C(F)(F)F)cc(=O)n2c1[C@@H]1C[C@H]1CO (relative stereo) [Example 15.8, 7-((3-(2-hydroxyethyl)-5-(trifluoromethyl)-1H-pyrazol-1-yl)methyl)-3-(trans-2-(hydroxymethyl)cyclopropyl)-2-methyl-5H-thiazolo[3,2-a]pyrimidin-5-one]	30.8 µM	122%
